Test results reported in publication PMC11943016, “TBG096 Ameliorates Memory Deficiency in AD Mouse Model via Promoting Neurogenesis and Regulation of Hsc70/HK2/PKM2/LAMP2A Signaling Pathway” (International Journal of Molecular Sciences, 2025).

How the values were obtained:
HFD-induced AD mice = assay: Behavioral tests (Y-maze, NOR, MWM) in HFD-induced AD mice; assay type: in vivo
Text: In experiments with the HFD-induced AD mouse model, a total of 60 Institute of Cancer Research (ICR) male mice aged 4 weeks from Zhejiang Academy of Medical Sciences (Hangzhou, China) were used for animal experiments (permit number: ZJU20230121). The animals were provided free access to a chow diet and water. […] The HFD and normal diet were alternated every two days to maintain freshness. Weekly measurements were taken for water intake, food intake, and body weight. In the eighteenth week, the mice underwent Y-maze and NOR tests. The Morris water maze test was conducted during the nineteenth week. After confirming the successful establishment of the AD model characterized by cognitive impairment, oral administration of treatments commenced. […] Each group had 10 mice.
The Y-maze test is used to evaluate working memory, and the process was referenced in another report. In brief, the Y-maze consists of three black plastic arms (A, B, and C) with the same length (30 cm), width (10 cm), height (15 cm), and 120° relative to adjacent arms. Each mouse is placed facing the wall of arm A and allowed to explore the maze freely for 5 min. The behavior of mice is recorded with a video recorder, and the data are stored in ANY-MAZE software version 6.35 (Stoelting, Chicago, IL, USA). The total number of entries made by the mice into each arm—considered as either whole or half-body entries—is recorded. An alternation is defined as a mouse moving through all three arms without returning to the initial arm on the third visit. Alternation: number of alternations/(number of arm entries − 2) × 100%.
The NOR test is utilized to assess the working memory capabilities of mice. The NOR apparatus consists of an open, black plastic box, two identical objects, and one novel object. The activity of the mice within the open field is captured and recorded using a video recorder, with data subsequently stored in ANY-MAZE software. The test is conducted over a span of two days, incorporating habituation, training, and testing stages. During the habituation phase, the mice are placed in the box devoid of any objects, allowing them to explore freely for a duration of five min. Following a 24 h interval, the NOR test is administered, which consists of both the training and testing phases. In the training phase, each mouse is positioned in the central area of the box, where two identical objects are placed equidistant from the mouse. Each training session lasts for five minutes. After a one-hour break, one of the identical objects is replaced with a new, distinct object, and the exploration duration for each mouse is recorded. Exploration is defined by the time a mouse spends touching or sniffing an object. The exploration times during both the training and testing phases are documented via video recording, and the data are organized within ANY-MAZE software. The object recognition index was defined as follows: (time spent on the new object)/(time spent on the old object + time spent on the new object) × 100%. The data are calculated by ANY-MAZE software.
The MWM test is used to measure spatial memory and long-term memory. The whole MWM equipment includes a circular water tank (diameter 1.5 m, depth 50 cm) with warm water (22 ± 1 °C) 35 cm deep, a platform (diameter 14 cm, immersed 1 cm in water), a camera, and a computer for data analysis. The MWM test is conducted over five 5 days: 4 days for training and 1 day for testing. The pool is divided into four quadrants, and at least three quadrants are tested at a time. In the training stage, the mouse is placed on the wall of one of the four quadrants and allowed to swim and find the platform hidden underwater within 120 s. If the mouse cannot find the platform, the experimenter will guide it and let it stay on the platform for 10 s. The experiment lasts for 4 days. On the fifth day of the test phase, the platform is removed, and each mouse is placed in a similar starting position and allowed to move freely for 90 s. […]

PC12 cells = assay: EdU cell proliferation in PC12 cells (inhibitor experiment); assay type: cell-based; details: 24 h
Experimental: In the inhibitor experiment of EdU cell proliferation activity, PC12 cells were seeded into each well of a 24-well plate as above for 24 h. Then, the medium in each well was replaced with 500 μL of serum-free […] containing VER155008 (inhibitor of Hsc70, 3 µM), or NH4Cl (inhibitor of lysosome, 250 µM) for 30 min according to the literature, and 500 μL of serum-free DMEM containing different samples was added and cultured for 24 h, respectively. After that, PC12 cells were treated with EdU for 2 h according to the operation steps of the BeyoClick™ EdU-488 cell proliferation detection kit (#C0071S, Beyotime Biotechnology, Shanghai, China). After cell labeling, the supernatant was removed. Then, PC12 cells were fixed, washed, and blocked, and the click reaction solution was added at room temperature for 30 min. After that, DAPI staining was performed for 10 min. Finally, PC12 cells were detected by fluorescence microscope (Olympus IX53, Tokyo, Japan).

Compound: O=C(SCCCCCCSCCCC(F)(F)F)c1cccc(O)c1O [TBG096]
- alternation behavior, Y-maze test (HFD-induced AD mice; 0.1, 5, and 20 mg/kg, vs HFD-only, 20 mg/kg most pronounced): significantly improved
- optimal dose in NOR test (HFD-induced AD mice; HFD-induced AD mice): 5 mg/kg
- dosage of optimal therapeutic effect on memory (HFD-induced AD mice; HFD-induced AD mice, comparable to Met): 20 mg/kg
- number of arm entries, Y-maze test (HFD-induced AD mice; TBG096 0.1, 5, 20 mg/kg, Met 140 mg/kg, 54 days): No significant differences
- escape latency, MWM test phase (HFD-induced AD mice; fifth day): significant reductions
- escape latency, MWM training phase (HFD-induced AD mice; fourth day, Met 140 mg/kg and all doses of TBG096): markedly reduced
- discrimination index, NOR test phase (HFD-induced AD mice; vs HFD-only group): higher
- number of platform crossings, MWM test phase (HFD-induced AD mice; vs HFD-only group): increased significantly
- EdU cell proliferation activity (PC12 cells): promoting PC12 cell proliferation
